Measured values as given in ChEMBL document CHEMBL3137381, “MMV Box Onchocerca lienalis screening set”.

Key:
Type in all cases: functional
Onchocerca lienalis [1] = assay: MMV: Percent motility assay at a compound concentration of 1.9e-7 M. Activity score legend: 3: Active, 2: Moderately active; 1: Inactive, 0: Toxic; settings: at 0.19 µM
Onchocerca lienalis [2] = assay: MMV: Percent motility assay at a compound concentration of 7.8e-7 M. Activity score legend: 3: Active, 2: Moderately active; 1: Inactive, 0: Toxic; settings: at 0.78 µM
Onchocerca lienalis [3] = assay: MMV: Percent motility assay at a compound concentration of 3.1e-6 M. Activity score legend: 3: Active, 2: Moderately active; 1: Inactive, 0: Toxic; settings: at 3.1 µM
Onchocerca lienalis [4] = assay: MMV: Percent motility assay at a compound concentration of 1.25e-5 M. Activity score legend: 3: Active, 2: Moderately active; 1: Inactive, 0: Toxic; settings: at 12.5 µM

SMILES | Motility (Onchocerca lienalis [1]) [%] | Motility (Onchocerca lienalis [2]) [%] | Motility (Onchocerca lienalis [3]) [%] | Motility (Onchocerca lienalis [4]) [%]
COc1ccc(C(=O)Nc2ccc(Cl)cc2C(=O)Nc2ccncc2)cc1 | 100 | 100 | 100 | 100
O=C(Nc1ccc(CN2CCOCC2)cc1)c1ccc(-c2ccc(Br)cc2)o1 | 100 | 100 | 100 | 100
CC(=O)NCCc1nc2ccccc2n1Cc1ccc(C(C)C)cc1 | 100 | 100 | 100 | 100
CN(C)c1ccc(-c2nc3cc(N)ccc3[nH]2)cc1 | 100 | 100 | 66.66 | 33.33
O=C(CSc1ccc2nnc(-c3cccc(F)c3)n2n1)Nc1ccc2c(c1)OCO2 | 100 | 100 | 100 | 100
Cc1c(C)n(Cc2ccc(F)cc2)c2ccc(C(=O)NCc3ccco3)cc12 | 100 | 100 | 100 | 100
CCN(CC)c1ccc(NC(=O)c2cccs2)cc1 | 100 | 100 | 100 | 100
CCCCNCC(O)(c1ccc(Cl)cc1)c1ccc(Cl)cc1 | 100 | 100 | 100 | 100
CCCC(c1nnnn1C1CCCCC1)N1CCN(C(=O)c2ccco2)CC1.Cl (stereo not drawn) | 100 | 100 | 100 | 100
COc1cccc(-c2nn(C)c3sc(C(=O)NCCN4CCN(c5ccccc5F)CC4)cc23)c1 | 100 | 100 | 100 | 100
Cc1ccc(CN2CCC(C(=O)Nc3ccc(-c4cc5ccccc5[nH]4)cc3)CC2)o1 | 100 | 100 | 100 | 100
Cc1cc(C)c2nc(N3CCC(C(=O)NCCCN4CCC(N5CCCCC5)CC4)CC3)sc2c1 | 100 | 100 | 100 | 100
O=C(Nc1ccsc1C(=O)NC1CCCCC1)c1ccc(F)cc1 | 100 | 100 | 100 | 100
O=C(Nc1cccc(C(F)(F)F)c1)c1cc(Cl)ccc1O | 100 | 100 | 53.33 | 0
CCOc1cccc2sc(N(Cc3cccnc3)C(=O)C3CCCCC3)nc12 | 100 | 100 | 100 | 100
COc1ccccc1CNC(=O)C1c2ccccc2C(=O)N(CC(C)C)C1c1cccs1 (stereo not drawn) | 100 | 100 | 100 | 100
CCN(CC)c1cc(C)c2cc(NC(=O)c3cccc(OC)c3)ccc2n1 | 100 | 100 | 100 | 100
O=C(Nc1ccccc1O)c1ccc(-c2ccc(Cl)cc2Cl)o1 | 100 | 100 | 100 | 100
O=C(Nc1ccc(F)c(Cl)c1)Nc1ccc(Cl)c(Cl)c1 | 100 | 100 | 100 | 0
CCOc1ccc(-c2nc(NC(=O)c3cccc(S(C)(=O)=O)c3)sc2C)cc1 | 100 | 100 | 100 | 100
COc1ccccc1N1CCN(C(CNS(=O)(=O)c2ccc(Cl)cc2)c2cccnc2)CC1 (stereo not drawn) | 100 | 100 | 100 | 100
CCCc1c(C)nc2ccccc2c1O | 100 | 100 | 100 | 100
CCOc1c(Cl)cc(CNC(C)C(O)c2ccccc2)cc1OC (stereo not drawn) | 100 | 100 | 100 | 100
CCN(CC)CCCNc1nc(-c2ccc(Cl)cc2)nc2ccccc12 | 100 | 100 | 100 | 66.6
CN1c2ccccc2N(C)C1c1ccc2c(c1)OCO2 | 100 | 100 | 100 | 100
O=C(NCC1Cc2cccc(-c3ccncc3)c2O1)c1csc2c1CCCC2 (stereo not drawn) | 100 | 100 | 100 | 100
C=C(C)CCC(C)N1CCC(N2CCC(C(=O)NCCc3ccccc3)CC2)CC1 (stereo not drawn) | 100 | 100 | 100 | 100
